Experimental data reported in patent US10196401B2, “Spiro-lactam NMDA receptor modulators and uses thereof” (Aptinyx Inc., priority 2016, dated 2019).

Experiments:
Plasma stability, human = assay type: in vitro ADME
Procedure: (§1) Microsomal and plasma stability of Compound A was investigated. The following table indicates the percent of Compound A remaining after 60 minutes.
(§2) Microsomal and plasma stability of Compound B was investigated. The following table indicates the percent of Compound B remaining after 60 minutes.

NMDAR2A = NMDAR2A (Homo sapiens, UniProt Q12879); experiment: Potentiation of [3H]MK-801 binding, NMDAR2A; design: species or system rat; conditions: NMDAR2A binding profile, wild-type
NMDAR2A, sequence (Q12879 23-1464, species assumed, other chains not shown): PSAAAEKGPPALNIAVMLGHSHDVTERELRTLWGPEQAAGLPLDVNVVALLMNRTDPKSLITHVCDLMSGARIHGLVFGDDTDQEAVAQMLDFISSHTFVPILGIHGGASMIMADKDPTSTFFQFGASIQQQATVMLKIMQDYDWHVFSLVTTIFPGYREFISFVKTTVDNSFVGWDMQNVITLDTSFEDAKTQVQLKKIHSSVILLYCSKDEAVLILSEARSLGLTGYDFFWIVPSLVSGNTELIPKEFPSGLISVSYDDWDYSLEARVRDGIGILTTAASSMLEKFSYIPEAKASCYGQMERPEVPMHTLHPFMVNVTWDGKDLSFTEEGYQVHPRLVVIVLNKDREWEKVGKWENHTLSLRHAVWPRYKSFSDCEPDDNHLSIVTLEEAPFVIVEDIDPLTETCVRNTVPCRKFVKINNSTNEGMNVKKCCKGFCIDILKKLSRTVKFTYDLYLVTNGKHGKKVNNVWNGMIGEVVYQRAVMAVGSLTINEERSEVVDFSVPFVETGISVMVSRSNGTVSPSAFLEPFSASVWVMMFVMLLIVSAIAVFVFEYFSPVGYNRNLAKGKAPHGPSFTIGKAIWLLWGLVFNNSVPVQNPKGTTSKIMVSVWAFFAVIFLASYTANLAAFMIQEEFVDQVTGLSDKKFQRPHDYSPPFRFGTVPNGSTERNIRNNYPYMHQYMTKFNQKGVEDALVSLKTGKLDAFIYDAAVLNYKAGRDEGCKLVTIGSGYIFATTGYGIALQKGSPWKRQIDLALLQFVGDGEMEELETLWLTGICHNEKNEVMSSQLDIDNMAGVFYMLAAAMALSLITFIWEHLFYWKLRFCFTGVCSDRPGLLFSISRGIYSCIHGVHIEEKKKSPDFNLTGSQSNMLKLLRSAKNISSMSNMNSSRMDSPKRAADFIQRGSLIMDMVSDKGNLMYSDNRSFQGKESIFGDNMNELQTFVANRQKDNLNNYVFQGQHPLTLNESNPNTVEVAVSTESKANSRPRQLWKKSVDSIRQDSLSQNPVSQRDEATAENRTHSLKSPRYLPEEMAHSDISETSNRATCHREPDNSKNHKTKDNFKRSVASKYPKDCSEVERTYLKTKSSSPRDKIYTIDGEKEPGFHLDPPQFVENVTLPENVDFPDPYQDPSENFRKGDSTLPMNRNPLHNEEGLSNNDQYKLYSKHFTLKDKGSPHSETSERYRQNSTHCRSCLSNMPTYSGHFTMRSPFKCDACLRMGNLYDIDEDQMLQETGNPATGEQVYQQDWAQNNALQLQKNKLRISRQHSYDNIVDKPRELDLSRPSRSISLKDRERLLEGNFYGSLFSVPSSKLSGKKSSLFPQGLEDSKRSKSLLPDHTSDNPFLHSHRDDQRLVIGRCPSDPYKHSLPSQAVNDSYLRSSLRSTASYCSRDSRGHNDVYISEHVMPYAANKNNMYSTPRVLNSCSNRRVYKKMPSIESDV

[1] = Microsomal stability, human; assay type: in vitro ADME
Procedure: as §1, §2

rats = experiment: Positive emotional learning (PEL) test, rat 50-kHz ultrasonic vocalizations (USVs); assay type: in vivo
Procedure: Experiments were conducted as described in Burgdorf et al., “The effect of selective breeding for differential rates of 50-kHz ultrasonic vocalizations on emotional behavior in rats,” Devel. Psychobiol., 51:34-46 (2009). Rat 50-kHz ultrasonic vocalization (hedonic USVs) is a validated model for the study of positive affective state and is best elicited by rough-and-tumble play.
The PEL assay measures the acquisition of positive (hedonic) 50-kHz ultrasonic vocalizations (USVs) to a social stimulus, heterospecific rough and tumble play stimulation. Heterospecific rough-and-tumble play stimulation was administered by the experimenter's right hand. […] High frequency ultrasonic vocalizations (USVs) were recorded and analyzed by sonogram with Avasoft SASlab Pro (Germany) as previously described by Burgdorf et al., “Positive emotional learning is regulated in the medial prefrontal cortex by GluN2B-containing NMDA receptors,” Neuroscience, 192:515-523 (2011). Frequency modulated 50-kHz USVs that occurred during each of the no-stimulation periods were quantified to measure PEL. […] Positive emotional learning was measured during the conditioned stimulus (CS) trials preceding the tickle unconditioned stimulus (UCS) trials. […] Running speed for animals to self administer tickling at the end of the 3 min session was also measured. […]

Sprague Dawley rats = experiment: Bennett model of mechanical analgesia (paw withdrawal threshold); assay type: in vivo, rat; conditions: single dose of 10 mg/kg PO; 1 hr, 24 hrs and 1 week post-dosing
Procedure: Bennett G J, Xie Y K, “A peripheral mononeuropathy in rat that produces disorders of pain sensation like those seen in man,” Pain 33:87-107, 1988. […] Vehicle animals receive the surgery and then receive vehicle rather than test compound. Animals were tested 1 hr, 24 h and 1 wk post-test compound or vehicle administration.
Male 2-3 month old Sprague Dawley rats were used. Harlan was the supplier for all studies. Rats were housed in Lucite cages with aspen wood chip bedding, maintained on a 12:12 light:dark cycle (lights on at 5 AM), and given ad libitum access to Purina lab chow (USA) and tap water throughout the study.
Rats were anesthetized using inhaled isoflurane (2.5%). Spared nerve injury surgery was performed as previously described (Bennett and Xie, 1988). An incision (˜1.5 cm in length) was made with a scalpel blade dorsally through skin on the right hindlimb, parallel and posterior to femur. Using a small pointed hemostat, the biceps femoris and gluteus superficialis muscles were separated. Using curved blunt forceps, the common sciatic nerve was isolated and exposed. For the mechanical analgesia studies, the whole sciatic nerve was ligated. Using hemostats/forceps and chromic gut (5-0), the nerve was loosely ligated with a square knot; 3 ligatures, 1 mm apart were placed on the nerve. […] For the thermal analgesia studies, the common peroneal and tibial branches of the sciatic nerve were ligated and cut, and the sural branch was spared. See Decosterd I, Woolf C J, “Spared nerve injury: an animal model of persistent peripheral neuropathic pain,” Pain 87:149-158, 2000. Testing occurred 1-2 weeks post-surgery.
During testing, rats were acclimated to the surface of a suspended wire mesh grid (1 cm×1 cm, with the wire being 0.3 cm in diameter) for 15-20 min. Starting from the smallest, each Von Frey filament was pressed perpendicularly to the plantar surface of the affected (ipsilateral) hindpaw until slightly bent and then held for 6 second. […]

NMDAR2B = NMDAR2B (Homo sapiens, UniProt Q13224); experiment: Potentiation of [3H]MK-801 binding, NMDAR2B; design: species or system rat; conditions: for % 1 mM Glycine: relative to 1 mM glycine
NMDAR2B, sequence (Q13224 27-1484, species assumed, other chains not shown): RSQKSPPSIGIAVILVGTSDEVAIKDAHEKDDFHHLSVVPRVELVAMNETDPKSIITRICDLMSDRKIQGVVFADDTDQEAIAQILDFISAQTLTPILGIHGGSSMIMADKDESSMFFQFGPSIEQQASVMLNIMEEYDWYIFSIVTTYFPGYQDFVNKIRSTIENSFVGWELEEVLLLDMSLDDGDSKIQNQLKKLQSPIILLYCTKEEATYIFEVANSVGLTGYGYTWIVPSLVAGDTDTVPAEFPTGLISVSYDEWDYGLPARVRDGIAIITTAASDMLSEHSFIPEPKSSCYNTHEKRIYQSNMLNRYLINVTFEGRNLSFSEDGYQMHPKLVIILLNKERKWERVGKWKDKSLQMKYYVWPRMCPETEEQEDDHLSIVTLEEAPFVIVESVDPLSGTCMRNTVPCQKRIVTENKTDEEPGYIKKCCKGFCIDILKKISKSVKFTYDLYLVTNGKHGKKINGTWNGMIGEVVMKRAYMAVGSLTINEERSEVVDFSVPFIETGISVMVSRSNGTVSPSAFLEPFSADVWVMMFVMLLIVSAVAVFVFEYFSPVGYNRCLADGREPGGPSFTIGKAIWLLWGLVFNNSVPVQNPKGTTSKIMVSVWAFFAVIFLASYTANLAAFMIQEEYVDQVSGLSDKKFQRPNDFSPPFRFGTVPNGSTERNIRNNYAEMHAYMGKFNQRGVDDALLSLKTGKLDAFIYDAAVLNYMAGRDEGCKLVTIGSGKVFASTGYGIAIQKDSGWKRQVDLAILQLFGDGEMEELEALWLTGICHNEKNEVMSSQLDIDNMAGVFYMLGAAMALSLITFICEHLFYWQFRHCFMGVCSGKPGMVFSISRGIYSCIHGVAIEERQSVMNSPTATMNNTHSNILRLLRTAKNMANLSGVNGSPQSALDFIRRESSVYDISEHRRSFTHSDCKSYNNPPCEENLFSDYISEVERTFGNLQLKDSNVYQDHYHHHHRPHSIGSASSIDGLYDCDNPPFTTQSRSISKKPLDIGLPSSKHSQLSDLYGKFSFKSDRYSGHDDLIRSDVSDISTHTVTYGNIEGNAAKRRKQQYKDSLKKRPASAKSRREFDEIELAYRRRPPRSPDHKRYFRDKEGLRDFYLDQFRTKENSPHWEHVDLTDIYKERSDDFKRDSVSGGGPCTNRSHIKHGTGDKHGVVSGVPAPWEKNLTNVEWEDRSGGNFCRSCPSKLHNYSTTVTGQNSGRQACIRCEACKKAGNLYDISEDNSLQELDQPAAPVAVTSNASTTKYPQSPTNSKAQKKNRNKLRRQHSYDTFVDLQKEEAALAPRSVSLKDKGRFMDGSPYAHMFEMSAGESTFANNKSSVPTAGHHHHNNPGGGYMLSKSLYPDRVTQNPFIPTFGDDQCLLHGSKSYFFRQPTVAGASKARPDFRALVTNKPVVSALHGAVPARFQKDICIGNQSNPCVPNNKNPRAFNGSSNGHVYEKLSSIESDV

[2] = Plasma protein binding, rat; assay type: in vitro ADME; conditions: read-out: plasma protein binding (% bound) (converted)
Procedure: Unbound drug concentration in the brain was also investigated, and plasma protein binding assays were conducted. The following table (% bound) indicates results for Compound A.
Unbound drug concentration in the brain was also investigated, and plasma protein binding assays were conducted. The following table (% bound) indicates results for Compound B.

SD rats = experiment: Novelty-induced hypophagia (NIH) test; assay type: in vivo, rat; conditions: 1 h before a single 10-min test session
Excerpt: This Example relates to the assessment of the anxiolytic effect of treatment in the stress-induced anxiety model, novelty induced hypophagia. This assay is also sensitive to the rapid acting antidepressants ketamine and GLYX-13 (Li et al., “mTOR-dependent synapse formation underlies the rapid antidepressant effects of NMDA antagonists,” Science 329:959-964, 2010; and Burgdorf et al., 2013). See also Bodnoff et al., “A comparison of the effects of diazepam versus several typical and atypical anti-depressant drugs in an animal model of anxiety,” Psychopharmacology, 97:277-279, 1989.
Testing was conducted as described by (Burgdorf et al., 2013). […] Animals were food deprived overnight before testing, and lab chow was placed in the center chamber of an open field (40×40×20 cm) for 10 min under dim red lighting. Between testing each animal, feces and urine were removed from the apparatus. After NIHI testing, the latency to eat in the animal's home cage was determined as a control to ensure the effect on eating is specific to the novel environment. Animals were videotaped, and latency (sec) for the animal to take the first bite of food was manually scored offline.
A single point per dose group that was 2 or more standard deviations from the mean was considered an outlier and was excluded from the data analysis. […]

| Compound | Plasma stability, percent remaining after 60 minutes (Plasma stability, human) [%] | EC50 (NMDAR2A) [pM] | Microsomal stability, percent remaining after 60 minutes [1] [%] | positive emotional learning as measured by rat USVs (rats; administered one hour prior to PEL testing) | mechanical analgesic effect in the Bennett model (Sprague Dawley rats) | Conclusion (NMDAR2B; NMDAR2B binding profile) | EC50 (NMDAR2B; NMDAR2B binding profile, wild-type) [pM] | % 1 mM Glycine (NMDAR2B; NMDAR2B binding profile) [%] | fraction unbound [2] | latency to eat in the NIH test (anxiolytic effect) (SD rats; 10-1000 μg/kg PO) | positive emotional learning in the rat USVs test (rats; rat, in vivo) | potentiation of [3H]MK-801 binding, subtype preference in words (NMDAR2B; NR2B, FIG. 6) | latency to eat in the NIH test (anxiolytic effect) (SD rats; 0.0001-1 μg/kg PO) |
| --- | --- | --- | --- | --- | --- | --- | --- | --- | --- | --- | --- | --- | --- |
| CC(C)CN1CCC[C@]12CN([C@H](C(N)=O)[C@@H](C)O)C2=O [Compound A, (2S,3R)-3-hydroxy-2-((R)-5-isobutyl-1-oxo-2,5-diazaspiro[3.4]octan-2-yl)butanamide] | 100 | 4.57 | 86 | increases positive emotional learning | produced a mechanical analgesic effect | WT2B agonist | 3090 | 68.22 | 0.701 | produces an anxiolytic effect | – | – | – |
| CC(C)CN1CCC[C@@]12CN([C@H](C(N)=O)[C@@H](C)O)C2=O [Compound B, (2S,3R)-3-hydroxy-2-((S)-5-isobutyl-1-oxo-2,5-diazaspiro[3.4]octan-2-yl)butanamide] | 100 | 977 | 87 | – | produced a mechanical analgesic effect | WT2B agonist | – | 49.02 | 0.802 | – | increases positive emotional learning | highly NR2B and NR2D preferring | produces an anxiolytic effect |
